The target in one data set is T1, NS3 domain (Hepatitis C virus genotype 4a, UniProt O39929).
T1 construct: NS3 protease domain 1–181 aa plus an N-terminal T7 tag and C-terminal His tag; made in house; host or cells: E. coli Rosetta (DE3) pLysS, vector pET-3a
The data set can be described thus: Differential static light scattering (DSLS) binding test. The settings on record: NS3 domain 15.0 µM with equimolar compound; for ΔTagg (liganded protein − free protein): 25.0 to 85.0 °C, n = 3; for ΔTagg as % of the positive control NS4A21`–33`: relative to NS4A21`–33`. Details: species or system HCV genotype 4a. Here is the method: We studied the binding of MOC compounds with NS3 by differential static light scattering (DSLS). The NS3 domain stability upon binding to NS4A was measured by monitoring denatured protein aggregation upon increasing the temperature gradually from 25.0 to 85.0 °C (0.5 °C increments) at 600 nm. If a ligand binds to the protein, this increases a protein’s aggregation temperature (Tagg). DSLS provides an advantage of being a label-free binding assay technique and ΔTagg (of liganded protein−free protein) can be used to assess relative binding affinities of ligands. For NS3, the ΔTagg values that occurred upon binding of the MOC compounds were measured and compared to that of NS4A21`–33` as a positive control.
We studied the binding of NS4A and its mutants with NS3 by DSLS using Stargazer-2™ (Harbinger Biotechnology and Engineering Corporation, Toronto, Canada). This method assesses protein stability by monitoring aggregate formation using controlled, gradually elevated temperatures. The NS3 domain stability upon binding to NS4A was measured by monitoring denatured protein aggregation upon increasing the temperature from 25.0 to 85.0 °C (0.5 °C increments) at 600 nm. The Tagg values were calculated automatically from raw data using Stargazer-AIR® software. All experiments were repeated three times using the same batch of NS3 protein.
The NS3 domain (15.0 µM), alone or mixed with an equimolar equivalent of tested MOC derivative, was added to a binding buffer (20.0 mM HEPES, 10.0 mM DTT, 200 mM NaCl, pH 7.60) to a final volume 100 µL. The mixture was incubated at room temperature with gentle shaking for 2 h. Afterwards, 10 µL of the mixture was transferred into a clear bottomed Nunc 384-well plate and covered by 10 µL paraffin oil to minimize evaporation. Protein aggregation was monitored by tracking the change in scattered light that was detected by a charged coupled device (CCD) camera. Snapshot images of the plate were taken every 0.5 °C. The pixel intensities in a preselected region of each well were integrated using image analysis software to generate a value representative of the total amount of scattered light in that region. These intensities were then plotted against temperature for each sample well and fitted to obtain the aggregation temperature (Tagg). Aggregation was monitored and analyzed to assess the effect of NS4A and its synthetic analogues on the stability of the NS3 as an indicator of binding. Each experiment was repeated three times. Statistical analysis was performed using GraphPad Prism v. 8.0® and Instat® v. 3.10 software.

Data set [1] concerns the target T2, NS3 (NS4A21`–33` binding site) (Hepatitis C virus genotype 4a, UniProt O39929).
T2 construct: NS3 protease domain 1–181 aa plus an N-terminal T7 tag and C-terminal His tag; made in house; host or cells: E. coli Rosetta (DE3) pLysS, vector pET-3a
Description: Fluorescence anisotropy (FA) competition assay with FITC-NS4A21`–33`. Details: species or system HCV genotype 4a. Particulars: displacement of FITC-NS4A21`–33` (0.10 µM) from NS3, 480/520 nm, compounds 150 to 0.292 µM; for IC50: Competition IC50 ± SEM. Here is the method:
This assay measures the potency by which synthetic peptidomimetics affect the binding of labeled NS4A21`–33`. Before testing the MOC compounds, the binding affinity of fluorescein isothiocyanate NS4A21`–33` (FITC-NS4A21`–33`) was first determined (see Supplementary Material Figure S3) based on our previous work. For this particular protein batch, the optimal ratio to be used in the FA affinity test was calculated to be 0.5 µM NS3 and 0.1 µM FITC-NS4A21`–33`. Compounds that efficiently compete with NS4A21`–33` are expected to decrease the fluorescence emitted from NS3/FITC-4A21-34` mixture.
In a 96-well plate, we added a place binding buffer (20 mM HEPES, 10 mM DTT, 200 mM NaCl, pH 7.60) and a mixture of NS3 ([…]) and FITC-NS4A (0.10 µM) at the calculated affinity constant concentration. A serial dilution of MOC compounds (dissolved in 1.50% DMSO in binding buffer) (1/2 dilution starting from 150 to 0.292 µM) were mixed gently for 60 min in a dark place and the fluorescence was measured at excitation/emission wavelengths of 480/520 nm. The competition IC50 was calculated according to the recommended equation embedded in GraphPad Prism v. 8.0® and Instat® software.
A general note: Fluorescence polarisation rises when a labelled molecule tumbles more slowly, as on binding a larger partner.

For another data set, the target named is T3, NS3 protease (Hepatitis C virus genotype 4a, UniProt O39929).
T3 construct: NS3 protease domain 1–181 aa plus an N-terminal T7 tag and C-terminal His tag; made in house; host or cells: E. coli Rosetta (DE3) pLysS, vector pET-3a
Description: Enzyme inhibition assay (SensoLyte 520 HCV Protease Assay Kit, modified). Type of data set: biochemical, HCV genotype 4a. Here is the method: MOC-24 was selected for a qualitative testing for its inhibition of NS3 protease activity. Experiments were carried out using the SensoLyte® 520 HCV Protease Assay Kit. This assay measures the recovered fluorescence emitted upon cleavage of the labeled peptide substrate representing the NS4A/NS4B junction. Considering that NS3 without NS4A is almost a thousand-times less catalytic, the method was modified to suit the purpose of our allosteric inhibition assay. […] As a positive control, an equimolar mixture of NS4A with NS3 (equimolar, 2.00 µM each) caused only a 9-fold increase in the catalytic activity of the enzyme (Figure 5), which was far less than the reported value, possibly due to the large amount of protein used.
The assay was performed using SensoLyte-520® HCV protease assay kit fluorometric* (Anaspec, Fremont, CA, USA) according to a modified procedure to suit the purpose of determination of allosteric inhibition. NS3 (2.00 µM) was mixed with MOC-24 (4.00 µM) for 15.0 min. Afterwards, 5-FAM/QXL™520 fluorescence resonance energy transfer (FRET) peptide was added as instructed by the assay kit manual. […] In the FRET peptide, the fluorescence of 5-FAM is quenched by QXL™520. Upon cleavage into two separate fragments by HCV NS3/4A protease, the fluorescence of 5-FAM is recovered, and can be monitored at 490 nm/520 nm (excitation/emission). […]

For data set [2], the target named is HCV NS3 protease domain, genotype 4a (1-181 aa, N-terminal T7 tag, C-terminal His tag) (hepatitis C virus genotype 4a).

Values joined by “and” are separate entries in the source; they are usually repeats but may differ in a detail not shown here. Identical values can stand only once. “Also recorded” adds a separate entry of the source.

The text below walks through data of publication PMC7175367, “1H-Imidazole-2,5-Dicarboxamides as NS4A Peptidomimetics: Identification of a New Approach to Inhibit HCV-NS3 Protease” (Biomolecules, 2020).

A word on the IC50: it is the concentration at which inhibition is half-maximal. In general, melting point refers to the temperature of the solid-liquid transition.

`CCCCCNC(=O)c1ncc(C(=O)NCC(=O)NC)[nH]1` [MOC-11, N^5-(2-(Methylamino)-2-oxoethyl)-N^2-(n-pentyl)-1H-imidazole-2,5-dicarboxamide] registered a melting point of 87 °C. Further, on NS3 domain, the “ΔTagg (liganded protein − free protein)” value stood at 0.82 °C and the “ΔTagg as % of the positive control NS4A21`–33`” value (shortened to “ΔTagg as %”) is 54.6%. The compound also returned an IC50 in data set [1] of 17.3 ± 1.22 µM.

`CCCCCNC(=O)c1ncc(C(=O)NCCCCNC(=N)N)[nH]1` [MOC-23, N^5-(4-Guanidinobutyl)-N^2-(n-pentyl)-1H-imidazole-2,5-dicarboxamide]: at NS3 domain, the “ΔTagg (liganded protein − free protein)” value turned out to be 0.32 °C and the “ΔTagg as %” value was found to be 19.5%. In data set [1], this compound displayed an IC50 of 4.7 ± 0.327 µM.

`CCCCCCNC(=O)c1ncc(C(=O)NCCCCNC(=N)N)[nH]1` [MOC-24, N^5-(4-Guanidinobutyl)-N^2-(n-hexyl)-1H-imidazole-2,5-dicarboxamide]: at NS3 domain, the “ΔTagg (liganded protein − free protein)” value is 0.60 °C; the “ΔTagg as %” value is 39.8% and 40%. In data set [1], the IC50 is 1.9 µM and 1.91 µM. Moreover, the NS3 catalytic activity entry on NS3 protease (qualitative, NS3 2.00 µM, MOC-24 4.00 µM, 5-FAM/QXL520 FRET peptide) is “inhibited NS3 protease activity; also recorded: complete loss of NS3 catalytic activity”.

For the compound `N=C(N)NCCCCNC(=O)c1cnc(C(=O)NCCOC2CCCCC2)[nH]1` [MOC-26, N^2-(2-(Cyclohexyloxy)ethyl)-N^5-(4-guanidinobutyl)-1H-imidazole-2,5-dicarboxamide], in data set [1], the IC50 was over 100 µM.

With `N=C(N)NCCCCNC(=O)c1cnc(C(=O)NCCCOC2CCCCC2)[nH]1` [MOC-27, N^2-(3-(Cyclohexyloxy)propyl)-N^5-(4-guanidinobutyl)-1H-imidazole-2,5-dicarboxamide], in data set [1], the IC50 was over 100 µM.

`N=C(N)NCCCCNC(=O)c1cnc(C(=O)NCCOc2ccccc2)[nH]1` [MOC-28, N^5-(4-Guanidinobutyl)-N^2-(2-phenoxyethyl)-1H-imidazole-2,5-dicarboxamide] returned a melting point of 137 to 139 °C. The IC50 in data set [1] is over 100 µM.

Turning to `N=C(N)NCCCCNC(=O)c1cnc(C(=O)NCCCOc2ccccc2)[nH]1` [MOC-29, N^5-(4-Guanidinobutyl)-N^2-(3-phenoxypropyl)-1H-imidazole-2,5-dicarboxamide], the melting point is 135 to 138 °C. The IC50 in data set [1] is over 100 µM.

The compound `CC(C)OCCCCNC(=O)c1ncc(C(=O)NCCCCNC(=N)N)[nH]1` [MOC-30, N^5-(4-Guanidinobutyl)-N^2-(4-isopropoxybutyl)-1H-imidazole-2,5-dicarboxamide] displayed an IC50 in data set [1] of 28.5 ± 8.55 µM.

Compound `CC(C)CCCCCNC(=O)c1ncc(C(=O)NCCCCNC(=N)N)[nH]1` [MOC-31, N^5-(4-Guanidinobutyl)-N^2-(6-methylheptyl)-1H-imidazole-2,5-dicarboxamide] showed a melting point of 83 to 84 °C. The compound also displayed an IC50 in data set [1] of 12.1 ± 1.69 µM.

With `CCC(C)CCNC(=O)c1ncc(C(=O)NCCCCNC(=N)N)[nH]1` (centres unmarked) [MOC-32, N^5-(4-guanidinobutyl)-N^2-(3-methylpentyl)-1H-imidazole-2,5-dicarboxamide], the IC50 in data set [1] is 7.7 µM and 7.74 µM.

For the compound `CCCCCCNC(=O)c1ncc(C(=O)NCc2ccccn2)[nH]1` [MOC-33, N^2-(n-Hexyl)-N^5-(pyridin-2-ylmethyl)-1H-imidazole-2,5-dicarboxamide], on NS3 domain, the “ΔTagg (liganded protein − free protein)” value was “much weaker binding”. For the same compound, in data set [1], the concentration for half-maximal inhibition (IC50) amounted to 40.3 ± 24 µM and the “Competition IC50 ± SEM” value is on record as “much weaker binding”.

LL-G21SVVIVGRIVLSG33-LL [NS4A]: the “fold increase in the catalytic activity of the enzyme” value at NS3 protease (positive control, NS4A equimolar with NS3, 2.00 µM each) is reported as 9 fold.

For the compound NS4A_(21`–33`) peptide, LL-G21…33-LL, the NS3 protease activity (SensoLyte 520 HCV protease assay, 5-FAM/QXL520 FRET peptide); NS3 2.00 µM with NS4A 2.00 µM against NS3 alone in data set [2] came to 9 fold.
